In publication PMC10191619, “Bilirubin gates the TRPM2 channel as a direct agonist to exacerbate ischemic brain damage” (Neuron, 2023):

Tests used:
[1] = Serum and CSF TB / UCB measurement after bilirubin injection and tMCAO; assay type: in vivo, mouse
Method: Trpm2^+/+, Trpm2^-/- and D1066A C57BL/6 mice were anesthetized by intraperitoneal injection of pentobarbital (55 mg/kg) 24 hours before tMCAO operation, and then fixed in the stereotactic setup (RWD Life Science). The skin above the skull from the base of the neck up to in between the eyes was cut open. A hole directly above the right ventricle was made with a grinding drill to allow insertion of the micro syringe into the lateral ventricle (coordinates: 1.1 mm laterally to the right and 0.5 mm posterior of the bregma, 2.5 mm deep). CSF was collected by using the micro injection pump (speed: 0.2 μl/min), after which the syringe was withdrawn, and the skin was sutured. The mice were removed from the stereotactic setup and 50 μl blood was taken through the orbital venous plexus. Mice were then placed on 37 °C heating blanket till they regained consciousness and returned to the cage. 1 or 24 hours after tMCAO, animals were anesthetized using a 2% isoflurane-oxygen mixture. CSF and blood were collected in the same way before sacrifice. All samples were centrifuged at 3000 r/min. Total bilirubin concentration of supernatants was measured with the Bilirubin Reagent Kit (Sigma). Samples were transferred to a 96-plates and mixed with reaction solution before measurements of their absorbance were made at 530 nm 10 minutes later. UCB concentration was measured with UnaG, a bilirubin-inducible fluorescent protein from Japanese eel muscle. For standard calibration curve of fluorescence intensity, a 100 μl reaction mixture containing 50 μl UnaG solution (1 μM) and 50 μl artificial bilirubin solution with concentration gradient (1.4278 μM, 0.7139 μM, 0.3573 μM, 0.1785 μM, 0.0893 μM and 0 μM) was prepared. After 10 minutes of reaction, the fluorescence intensity was detected by microplate reader (Synergy H1M, Bio Tek) with fluorescence filters for excitation and emission wavelengths of 485 and 528 nm, respectively. Serum and CSF samples were diluted 20-fold with PBS and fluorescence intensity was measured. The UCB levels were extrapolated from the standard curve.

[2] = target: T1, human TRPM2 (hTRPM2) channel (Homo sapiens, UniProt O94759); assay: Single-channel outside-out recordings from HEK-hTRPM2 cells; assay type: cell-based
T1 construct: expressed in transfected cells; host or cells: HEK293 cells with tetracycline-inducible expression of hTRPM2 (HEK-hTRPM2)
Method: (§1) Human embryonic kidney 293 (HEK293) cells with tetracycline-inducible expression of human TRPM2 channel (hTRPM2) were cultured in a mixed medium containing DMEM/ F-12 (Gibco, USA) and 10% fetal bovine serum (Gibco, USA) as well as blasticidin (50 μg/ml, Invivogen, USA) and zeocin (0.4 mg/ml, Invivogen, USA). The expression of hTRPM2 was induced by substituting blasticin and zeocin for tetracycline (1 μg/ml, Sigma, USA) 24-48 hours before use. TRPM2 channel mutants were transiently expressed in HEK293T cells by transfection with using Lipofectamine 3000. Briefly, HEK293T cells were transiently transfected with cDNAs encoding the mutant hTRPM2 channel. The cDNA for GFP was co-transfected as a marker for identification of the transfected cells for electrophysiological experiments 16-24 hours after transfection. All the cells were seeded on 96-well coverslips (3 x 3 mm, WHB) and cultured at 37 °C under a humidified atmosphere containing 5% CO2.
Coronal cortical slices were transferred into the recording chamber and continuously perfused at room temperature with ACSF oxygenated with 95% O2 and 5% CO2. Cortical pyramidal neurons were visualized by an upright microscope (Carl Zeiss) equipped with a CCD monochrome video camera (IR-1000, DAGE-MTI) and identified by their localization in Layer V. Electrophysiology data were sampled (50 kHz) and lowpass filtered (5kHz four-pole Bessel filter) by a MultiClamp 700B dual channel amplifier (Molecular Devices). The patch electrodes were pulled from borosilicate capillary glass (1.5 mm outer diameter; 0.86 mm inner diameter; World Precision Instruments, USA) with a horizontal multi-step micropipette puller (Model, P-1000, Sutter Instrument). […] After forming >1 GΩ resistance seal in cell-attached configuration, we broke the patch membrane and kept the neurons at -64 mV and then performed whole-cell current-clamp recordings. Cells requiring holding current > -150 pA at -60 mV were discarded. The resting membrane potential (Vrest) was tested in I = 0 configuration. […] For whole-cell or single channel recordings from transfected HEK-293T cells, the coverslips were placed in a culture dish (35 × 35 mm, Sorfa) containing HEPES based extracellular solution (ECS) and recorded by patch-clamp technique. […] Each coverslip was recorded only once with different drug exposures. […] The excised patches were voltage-clamped from -80 mV to +80 mV (in 20 mV increasement) to generate the current-voltage (I-V) relationship of single channel currents from which their main conductance was calculated from the slope by linear regression of the mean current amplitude at different potentials. […]

[3] = tested on: cortical pyramidal neurons from D1066A KI mice; assay: Whole-cell current-clamp, intrinsic excitability in brain slices, D1066A KI; assay type: cell-based, mouse; details: prolonged perfusion time
[4] = tested on: hTRPM2 pore mutants (P983A, D987A, A1046C, N1049C); assay: Whole-cell patch-clamp, pore mutants; assay type: cell-based, human; details: bilirubin
[5] = tested on: layer 5 cortical pyramidal neurons from adult Trpm2−/− mice; assay: Whole-cell current-clamp, intrinsic excitability in brain slices, Trpm2-/-; assay type: cell-based, mouse
hTRPM2 R1433A = target: T2, hTRPM2 R1433A (Homo sapiens, UniProt O94759, R1433A); assay: Whole-cell patch-clamp, C-terminal NUDT9-H domain mutant; assay type: cell-based; details: bilirubin
T2 construct: expressed in transfected cells; host or cells: HEK293T cells, transient transfection, GFP cDNA co-transfected as a separate marker
Method: as §1, with “All the cells were seeded on 96-well coverslips (3 x 3 mm, WHB) and cultured at 37 °C under a humidified atmosphere containing 5% CO2.” left out
(§2) Coronal cortical slices were transferred into the recording chamber and continuously perfused at room temperature with ACSF oxygenated with 95% O2 and 5% CO2. […] For whole-cell or single channel recordings from transfected HEK-293T cells, the coverslips were placed in a culture dish (35 × 35 mm, Sorfa) containing HEPES based extracellular solution (ECS) and recorded by patch-clamp technique. […] Each coverslip was recorded only once with different drug exposures. […]

[6] = tested on: hTRPM2 Ca2+ binding site mutants; assay: Whole-cell patch-clamp, Ca2+ binding site mutants; assay type: cell-based, human; details: mutations disabling binding sites for Ca2+
tMCAO Trpm2−/− mice = assay: tMCAO ischemia model, infarct volume by TTC staining, Trpm2-/- mice; assay type: in vivo, mouse; details: 24 h after tMCAO
TRPM2-ΔN/ΔC = target: T3, TRPM2-ΔN/ΔC (Homo sapiens, UniProt O94759); assay: Whole-cell patch-clamp, truncation mutant; assay type: cell-based; details: bilirubin
T3 construct: expressed in transfected cells; host or cells: HEK293T cells, transient transfection, GFP cDNA co-transfected as a separate marker
Method: as §1, with “All the cells were seeded on 96-well coverslips (3 x 3 mm, WHB) and cultured at 37 °C under a humidified atmosphere containing 5% CO2.” left out
as §2

[7] = target: T4, hTRPM2 K928A/D1069A double mutant (Homo sapiens, UniProt O94759, D1069A/K928A); assay: Whole-cell patch-clamp, bilirubin-binding cavity double mutant; assay type: cell-based; details: 9 μM extracellular
T4 construct: expressed in transfected cells; host or cells: HEK293T cells, transient transfection, GFP cDNA co-transfected as a separate marker
Method: as §1, with “All the cells were seeded on 96-well coverslips (3 x 3 mm, WHB) and cultured at 37 °C under a humidified atmosphere containing 5% CO2.” left out
as §2

T1 sequence (O94759 whole entry): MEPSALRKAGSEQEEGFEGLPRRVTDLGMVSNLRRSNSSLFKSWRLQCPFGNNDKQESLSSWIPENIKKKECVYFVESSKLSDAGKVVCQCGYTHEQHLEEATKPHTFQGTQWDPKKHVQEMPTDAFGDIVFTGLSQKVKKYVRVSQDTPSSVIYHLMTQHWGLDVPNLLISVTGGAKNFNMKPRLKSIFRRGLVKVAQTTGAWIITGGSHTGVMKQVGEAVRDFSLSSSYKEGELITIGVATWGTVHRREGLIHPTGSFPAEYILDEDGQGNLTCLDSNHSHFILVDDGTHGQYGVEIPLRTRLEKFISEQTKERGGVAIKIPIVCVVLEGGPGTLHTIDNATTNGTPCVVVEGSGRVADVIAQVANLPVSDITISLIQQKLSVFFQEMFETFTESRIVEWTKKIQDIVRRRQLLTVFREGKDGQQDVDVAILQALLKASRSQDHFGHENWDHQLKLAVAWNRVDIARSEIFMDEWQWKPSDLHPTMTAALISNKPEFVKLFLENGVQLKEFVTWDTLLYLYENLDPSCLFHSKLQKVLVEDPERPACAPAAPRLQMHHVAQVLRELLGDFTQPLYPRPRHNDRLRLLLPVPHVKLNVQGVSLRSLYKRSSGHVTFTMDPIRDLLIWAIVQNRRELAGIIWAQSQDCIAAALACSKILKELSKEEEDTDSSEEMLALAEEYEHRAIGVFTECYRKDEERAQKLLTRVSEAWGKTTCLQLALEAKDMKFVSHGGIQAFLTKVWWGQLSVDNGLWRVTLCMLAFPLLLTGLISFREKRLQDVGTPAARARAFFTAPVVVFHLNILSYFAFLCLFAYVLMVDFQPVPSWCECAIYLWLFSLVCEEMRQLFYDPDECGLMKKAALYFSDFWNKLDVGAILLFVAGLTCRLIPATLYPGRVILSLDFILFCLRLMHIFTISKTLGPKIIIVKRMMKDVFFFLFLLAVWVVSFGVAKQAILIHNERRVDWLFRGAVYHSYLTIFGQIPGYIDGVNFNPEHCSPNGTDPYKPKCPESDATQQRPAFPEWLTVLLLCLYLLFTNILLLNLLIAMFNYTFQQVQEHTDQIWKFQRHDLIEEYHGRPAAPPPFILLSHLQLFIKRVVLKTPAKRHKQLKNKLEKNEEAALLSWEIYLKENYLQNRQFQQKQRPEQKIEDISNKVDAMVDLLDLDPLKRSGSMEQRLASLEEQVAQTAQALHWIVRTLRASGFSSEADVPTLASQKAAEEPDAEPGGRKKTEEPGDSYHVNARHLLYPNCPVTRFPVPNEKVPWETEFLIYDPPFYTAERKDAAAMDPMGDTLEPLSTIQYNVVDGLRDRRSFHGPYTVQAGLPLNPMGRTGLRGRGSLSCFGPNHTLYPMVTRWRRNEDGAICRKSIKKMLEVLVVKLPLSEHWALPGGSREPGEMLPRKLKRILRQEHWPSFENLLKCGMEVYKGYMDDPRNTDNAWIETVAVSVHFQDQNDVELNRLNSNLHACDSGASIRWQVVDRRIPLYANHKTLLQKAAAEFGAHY
T2 sequence (O94759 whole entry R1433A): as the sequence (O94759 whole entry) above, with R1433A counted along it
T3 sequence (O94759 1-1449 isoform O94759-2): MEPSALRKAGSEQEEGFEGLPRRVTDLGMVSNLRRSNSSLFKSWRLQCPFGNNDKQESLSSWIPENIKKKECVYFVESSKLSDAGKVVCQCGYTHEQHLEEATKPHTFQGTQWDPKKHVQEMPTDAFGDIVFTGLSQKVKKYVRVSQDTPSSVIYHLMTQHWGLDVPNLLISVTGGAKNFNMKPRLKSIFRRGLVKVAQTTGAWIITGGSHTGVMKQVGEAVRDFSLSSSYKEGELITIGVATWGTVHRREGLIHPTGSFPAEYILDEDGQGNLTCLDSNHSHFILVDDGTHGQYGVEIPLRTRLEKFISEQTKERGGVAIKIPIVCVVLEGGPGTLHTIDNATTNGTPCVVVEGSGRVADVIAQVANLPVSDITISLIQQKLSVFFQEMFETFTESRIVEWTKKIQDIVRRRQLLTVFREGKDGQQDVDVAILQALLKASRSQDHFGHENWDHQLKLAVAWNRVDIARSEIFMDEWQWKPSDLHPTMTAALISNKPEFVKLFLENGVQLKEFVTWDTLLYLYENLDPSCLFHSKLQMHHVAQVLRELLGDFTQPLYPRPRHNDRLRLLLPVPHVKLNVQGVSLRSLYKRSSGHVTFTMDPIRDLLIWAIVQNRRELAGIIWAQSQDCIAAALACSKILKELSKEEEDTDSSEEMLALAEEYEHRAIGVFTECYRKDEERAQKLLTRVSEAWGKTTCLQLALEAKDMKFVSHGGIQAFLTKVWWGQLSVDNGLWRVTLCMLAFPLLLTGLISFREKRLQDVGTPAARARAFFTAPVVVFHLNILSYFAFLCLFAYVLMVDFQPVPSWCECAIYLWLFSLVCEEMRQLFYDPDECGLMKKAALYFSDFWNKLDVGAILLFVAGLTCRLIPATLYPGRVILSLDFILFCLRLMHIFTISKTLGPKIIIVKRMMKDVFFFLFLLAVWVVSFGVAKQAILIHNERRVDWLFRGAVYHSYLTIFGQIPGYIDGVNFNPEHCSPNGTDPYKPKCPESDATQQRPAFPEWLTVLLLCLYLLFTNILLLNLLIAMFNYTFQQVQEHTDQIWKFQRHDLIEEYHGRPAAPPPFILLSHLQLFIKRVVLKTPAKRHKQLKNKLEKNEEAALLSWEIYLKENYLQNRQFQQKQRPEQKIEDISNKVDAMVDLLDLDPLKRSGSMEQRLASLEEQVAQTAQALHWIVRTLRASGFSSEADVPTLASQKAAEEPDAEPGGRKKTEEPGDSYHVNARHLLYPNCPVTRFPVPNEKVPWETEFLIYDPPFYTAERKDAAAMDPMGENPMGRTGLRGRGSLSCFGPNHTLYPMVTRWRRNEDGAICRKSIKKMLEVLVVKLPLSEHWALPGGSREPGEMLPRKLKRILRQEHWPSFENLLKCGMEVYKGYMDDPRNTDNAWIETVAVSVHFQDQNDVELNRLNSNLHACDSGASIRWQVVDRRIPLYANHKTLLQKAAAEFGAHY
T4 sequence (O94759 whole entry K928A/D1069A): as the sequence (O94759 whole entry) above, with K928A, D1069A counted along it

Q: For `C=CC1=C(C)/C(=C/c2[nH]c(Cc3[nH]c(/C=C4\NC(=O)C(C)=C4C=C)c(C)c3CCC(=O)O)c(CCC(=O)O)c2C)NC1=O` [bilirubin, Bilirubin], which “UCB concentration in serum and CSF, Bil group vs Ctrl group” value ([1]; Trpm2+/+ mice, 24 h after tMCAO) is on record?
A: much higher

Q: And the “level of UCB, Bil group vs Ctrl group” value ([1]; Trpm2−/− mice, 24 h after tMCAO)?
A: did not change

Q: And the “TB levels in serum and CSF vs saline” value ([1]; mice injected with bilirubin 50 μg/g i.p., after tMCAO)?
A: markedly higher

Q: And the single-channel currents ([2]; bilirubin 300 nM, at −40 mV, outside-out)?
A: −2.02 ± 0.05 pA

Q: What about the “opening probability (Po)” value ([2]; bilirubin perfusion, n = 12) of the same molecule?
A: significantly increased

Q: What about the “slope conductance (single-channel)” value ([2]; bilirubin-driven current-voltage relationship, −80 to +80 mV, n = 4–7) of the same molecule?
A: 76.29 ± 7.85 pS

Q: What about the “hyperexcitability in cortical pyramidal neurons” value [3] of the same molecule?
A: did not induce the hyperexcitability

Q: And the “activation of mutant TRPM2 currents” value [4]?
A: effectively activated

Q: What about the “excitability of cortical neurons” value ([5]; Trpm2−/− slices, bilirubin for 5 and 20 min, synaptic blockers present) of the same molecule?
A: absent

Q: What about the spike amplitude ([5]; Trpm2−/−, 20 min after bilirubin application, 2.5 nA current in 0.3 ms) of the same molecule?
A: significantly attenuated

Q: What about the “activation of mutant TRPM2 currents” value (hTRPM2 R1433A) of the same molecule?
A: remained responsive

Q: And the “activation of TRPM2 currents by bilirubin” value [6]?
A: did not prevent the activation

Q: And the infarct volume (tMCAO Trpm2−/− mice; Trpm2−/− mice, bilirubin 50 μg/g i.p. 30 min prior to 30 min tMCAO, n = 15)?
A: 25.69% ± 4.46%

Q: And the infarct volume (tMCAO Trpm2−/− mice; female Trpm2−/− mice, n = 5)?
A: 30.63 ± 8.71%

Q: And the infarct volume (tMCAO Trpm2−/− mice; male Trpm2−/− mice, n = 10)?
A: 23.22 ± 5.25%

Q: And the “activation of mutant TRPM2 currents” value (TRPM2-ΔN/ΔC)?
A: eliminated the activation of the TRPM2 channel by ADPR but not by bilirubin

Q: What about the “activation of mutant TRPM2 currents” value [7] of the same molecule?
A: completely lost its ability to activate
